# Measurements taken from patent US11311538B2, “Compositions and methods for targeting cancers” (YALE UNIVERSITY, priority 2018, dated 2022).
# Legend:
# HEK293FT and YUNK1 cells = assay: Clonogenic survival assay, PARP inhibitors, knockdown or metabolite-treated cells; type: cell-based, human; settings: knockdown of SDHB and FH or exogenous dimethyl-fumarate or succinate (FIGS. 4A-4B, 8E-8I)
# [1] = test system: shSDHB-expressing HEK293FT tumor xenografts; assay: Tumor growth delay assay, shSDHB HEK293FT xenografts; type: in vivo, mouse
# Source text: (§1) In vivo efficacy studies: HEK293FT xenografts. Female athymic nu/nu mice (Hsd:Athymic Nude-Foxnlnu, Envigo) were used for all in vivo xenograft studies. Mice were quarantined for at least 1 week before experimental manipulation. Tumors were formed using shRNA-expressing versions of the tumorigenic human embryonic kidney cell-derived line, HEK293FT. HEK293FT is a subline of HEK293 cells that has been transformed by expression of SV40 Large T-antigen. […], or shCTRL (non-targeted control) expressing HEK293FT cells were implanted subcutaneously (5×10^6 cells in 0.1 cc PBS) in the right flank of nude mice. Two efficacy studies were conducted. In one, mice were randomized into treatment and non-treated groups (10 mice/group) at day 3, with treatment initiation 4 days post implant. In a second independent in vivo efficacy study, mice were injected as above with 10 mice per group, and treatment was started only once the tumor volumes reached […]. For both studies, mice were visually observed daily and tumors were measured three times per week by calipers to determine tumor volume using the formula: Volume=L×W×W×0.532. Mice were fed with a grain based rodent diet containing Doxycycline at 200 mg/kg (Bioserv, Catalog #S3888). BMN-673 was solubilized in DMSO and diluted with PBS containing 10% dimethylacetamide (Sigma-Aldrich) and 6% Solutol (Sigma). BMN-673 (0.5 mg/kg, 0.2 cc), or vehicle (0.2 cc) was administered by oral gavage once daily for the duration of the experiment. Mean (geometric) tumor volume (mm^3) was plotted over time to monitor tumor growth. P-values were determined by ANOVA with repeated measures. In vivo efficacy studies: UOK 262 xenografts. Female athymic nu/nu mice (Hsd:Athymic Nude-Foxnlnu, Envigo) were used for all in vivo xenograft studies. Mice were quarantined for at least 1 week before experimental manipulation. UOK 262 cells were implanted subcutaneously using 5×10^6 cells in 0.1 cc PBS mixed with 0.1 cc of Corning Matrigel Matrix (Cat. No. 354234) per animal. Mice were randomized at day 3 day into two groups (n=10/group). […]
# [2] = test system: shFH-expressing HEK293FT tumor xenografts; assay: Tumor growth delay assay, shFH HEK293FT xenografts; type: in vivo, mouse
# Source text: as §1
# [3] = LC/MS analysis of intratumoral BMN-673; type: in vivo, mouse; settings: 24 h after single gavage dose of 1 or 10 mg/kg, LC/MS (FIG. 4J)
# Source text: In vivo efficacy studies: HEK293FT xenografts. Female athymic nu/nu mice (Hsd:Athymic Nude-Foxnlnu, Envigo) were used for all in vivo xenograft studies. Mice were quarantined for at least 1 week before experimental manipulation. Tumors were formed using shRNA-expressing versions of the tumorigenic human embryonic kidney cell-derived line, HEK293FT. HEK293FT is a subline of HEK293 cells that has been transformed by expression of SV40 Large T-antigen. […], or shCTRL (non-targeted control) expressing HEK293FT cells were implanted subcutaneously (5×10^6 cells in 0.1 cc PBS) in the right flank of nude mice. Two efficacy studies were conducted. In one, mice were randomized into treatment and non-treated groups (10 mice/group) at day 3, with treatment initiation 4 days post implant. […] For both studies, mice were visually observed daily and tumors were measured three times per week by calipers to determine tumor volume using the formula: Volume=L×W×W×0.532. […] P-values were determined by ANOVA with repeated measures. […] The concentrations of BMN-673 in tumor samples were determined using liquid chromatography with tandem mass spectrometry (LC-MS/MS). […] BMN673 was monitored using the positive electrospray ionization mode at the most sensitive and specific mass transition, m/z 381.0>228.8. […]
# [4] = two separate sets of in vivo efficacy studies, 0.5 mg/kg oral gavage once daily
compound,measurement,setting,value
"Cn1ncnc1[C@H]1c2n[nH]c(=O)c3cc(F)cc(c23)N[C@@H]1c1ccc(F)cc1 [BMN-673, BMN-673 (Talazoparib)]","sensitivity to the PARP inhibitor, clonogenic survival",HEK293FT and YUNK1 cells,dramatic sensitivity
same,"tumor growth vs vehicle, SDH-deficient tumors","[1]; treatment after tumors reached 95-150 mm^3, 0.5 mg/kg oral gavage once daily (FIG. 4G)",inhibited the growth
same,"tumor growth vs vehicle, shSDHB tumors","[1]; treatment beginning four days after implantation, 0.5 mg/kg oral gavage once daily (FIG. 4D)",robust suppression of tumor growth
same,growth of SDHB-deficient tumors,[1]; [4],significantly inhibited the growth
same,"tumor growth vs vehicle, FH-deficient tumors","[2]; treatment after tumors reached 95-150 mm^3, 0.5 mg/kg oral gavage once daily (FIG. 4H)",inhibited the growth
same,"tumor growth vs vehicle, shFH tumors","[2]; treatment beginning four days after implantation, 0.5 mg/kg oral gavage once daily (FIG. 4E)",robust suppression of tumor growth
same,growth of FH-deficient tumors,[2]; [4],significantly inhibited the growth
same,"intra-tumoral BMN-673 levels, shSDHB vs shCTRL HEK293FT tumors",[3],no significant difference
